Key:
tibiae (E15.5) = assay: Tibial organ culture (ex vivo); parameters: species or system mouse; details: 100 nM, 6 d
Protocol: Figure 2. The effects of estrogen on CXXC5 expression and the mediation of growth plate senescence. (A) Immunoblotting (upper) and quantitative analyses (mean ± SEM, n = 3) (lower) in C28/I2 cells treated with 100 nM E2 (17β-estradiol) for 0, 1, 3, 6, 24, 48, or 72 h. (B) Immunocytochemical staining (left) and quantitative analyses of the fluorescent intensity (mean ± SEM, n = 3; t test, **P < 0.005 and ***P < 0.0005) (right) in C28/I2 cells treated with 100 nM E2 for 40 h. Scale bars, 100 μm. (C–E) Tibial organ cultures (E15.5) incubated with 100 nM E2 for 6 d. Representative images at 6 d (C, left) and quantitative analyses of the growth changes (mean ± SEM, n = 5; t test, ***P < 0.0005) (C, right). Scale bar, 1 mm. H&E staining (D, left) and quantification of each zone height (mean ± SEM, n = 5; t test, *P < 0.05 and **P < 0.005) (D, right) in the growth plate. Scale bar, 200 μm. IHC analyses of β-catenin and CXXC5 (E). Scale bars, 50 μm. (F) 3-wk-old Cxxc5^+/+ and Cxxc5^−/− mice were treated with E2 cypionate (70 μg/kg) by i.m. injection once a week for 3 wk (n = 3–4). Representative images of H&E staining and IHC analyses for BrdU, β-catenin, and CXXC5 in the growth plates of proximal tibiae are shown. […] Tibial length was measured before treatment and after 6 d in culture. The samples were then prepared for paraffin embedding, sectioned, and analyzed by H&E and IHC staining.

C28/I2 cells = assay: CXXC5/β-catenin expression and chondrogenic markers in C28/I2 cells; type: cell-based, human
Protocol: Figure 2. The effects of estrogen on CXXC5 expression and the mediation of growth plate senescence. (A) Immunoblotting (upper) and quantitative analyses (mean ± SEM, n = 3) (lower) in C28/I2 cells treated with 100 nM E2 (17β-estradiol) for 0, 1, 3, 6, 24, 48, or 72 h. (B) Immunocytochemical staining (left) and quantitative analyses of the fluorescent intensity (mean ± SEM, n = 3; t test, **P < 0.005 and ***P < 0.0005) (right) in C28/I2 cells treated with 100 nM E2 for 40 h. Scale bars, 100 μm. (C–E) Tibial organ cultures (E15.5) incubated with 100 nM E2 for 6 d. Representative images at 6 d (C, left) and quantitative analyses of the growth changes (mean ± SEM, n = 5; t test, ***P < 0.0005) (C, right). Scale bar, 1 mm. H&E staining (D, left) and quantification of each zone height (mean ± SEM, n = 5; t test, *P < 0.05 and **P < 0.005) (D, right) in the growth plate. Scale bar, 200 μm. IHC analyses of β-catenin and CXXC5 (E). Scale bars, 50 μm. (F) 3-wk-old Cxxc5^+/+ and Cxxc5^−/− mice were treated with E2 cypionate (70 μg/kg) by i.m. injection once a week for 3 wk (n = 3–4). Representative images of H&E staining and IHC analyses for BrdU, β-catenin, and CXXC5 in the growth plates of proximal tibiae are shown. The area within the dashed lines indicates the growth plate zone. Black and white scale bars, 50 μm. Yellow scale bar, 20 μm. RZ, resting zone; PZ, proliferative zone; HZ, hypertrophic zone.
Figure S7. The effects of KY19382 on chondrocyte proliferation and differentiation. (A) ATDC5 cells treated with 0.01 or 0.1 μM concentrations of KY19382 were incubated for 48 h followed by treatment with 50 μM BrdU for 12 h before harvesting. BrdU incorporation was visualized by immunofluorescent staining using a specific BrdU antibody (left). BrdU-positive cells were quantified (mean ± SEM, n = 3; ANOVA, P = 7.8 × 10^−5; Tukey’s post-hoc test, *P < 0.05 and ***P < 0.0005) (right). Scale bar, 100 μm. (B) qRT-PCR analyses of mRNA levels of chondrogenic differentiation markers in ATDC5 cells incubated with 0.1 μM KY19382 for 3 d in three-dimensional alginate beads after transfection with control siRNA or Ctnnb1 siRNA (mean ± SEM, n = 3; t test, *P < 0.05, **P < 0.005, and ***P < 0.0005). (C) qRT-PCR analyses of mRNA levels of chondrogenic differentiation markers in C28/I2 cells incubated with 1 μM KY19382 for 3 d in three-dimensional alginate beads (mean ± SEM, n = 3; t test, *P < 0.05 and ***P < 0.0005). n.s., no significance.
The mouse chondrogenic cell line, ATDC5, was obtained from the RIKEN Cell Bank. The human juvenile costal chondrocyte cell line, C28/I2, was provided by Dr. W U Kim (Catholic University, Korea). HEK293-TOP cells (HEK293 cells containing the chromosomally incorporated TOPFlash gene) were provided by Dr. S Oh (Kuk Min University, Korea). […]

| Structure (SMILES) | tibial length in ex vivo tibial culture (tibiae (E15.5)) | time of maximal CXXC5 level (C28/I2 cells; 100 nM) | CXXC5 expression (C28/I2 cells; 100 nM, 0-72 h) | β-catenin level (C28/I2 cells; 100 nM, after 24 h) | mRNA levels of chondrogenic markers (C28/I2 cells; 1 μM, 3 d, alginate beads) |
| --- | --- | --- | --- | --- | --- |
| C[C@]12CC[C@@H]3c4ccc(O)cc4CC[C@H]3[C@@H]1CC[C@@H]2O [E2, 17β-estradiol] | reduced tibial length | 24 h | induced | reduced |  |
| CON=C1C(=C2C(=O)Nc3cc(Cl)c(Cl)cc32)Nc2ccccc21 [KY19382, 5,6-dichloroindirubin-3′-methoxime] |  |  |  |  | up-regulated |
